Source: US12496301B2, “Use of androgen receptor degrader for the treatment of spinal and bulbar muscular atrophy” (Arvinas Operations, Inc., priority 2023, dated 2025)

Columns and labels:
endogenous mouse AR = target: T1, endogenous mouse AR (Mus musculus, UniProt P19091); test: Endogenous mouse AR degradation in muscle of hAR100Q mice, capillary immunoassay; format: in vivo
T1 construct: from tissue; host or cells: mouse LABC muscle (C57Bl/6 and hAR100Q mice); quadriceps (hAR100Q mice)
T1 sequence (P19091 1-899): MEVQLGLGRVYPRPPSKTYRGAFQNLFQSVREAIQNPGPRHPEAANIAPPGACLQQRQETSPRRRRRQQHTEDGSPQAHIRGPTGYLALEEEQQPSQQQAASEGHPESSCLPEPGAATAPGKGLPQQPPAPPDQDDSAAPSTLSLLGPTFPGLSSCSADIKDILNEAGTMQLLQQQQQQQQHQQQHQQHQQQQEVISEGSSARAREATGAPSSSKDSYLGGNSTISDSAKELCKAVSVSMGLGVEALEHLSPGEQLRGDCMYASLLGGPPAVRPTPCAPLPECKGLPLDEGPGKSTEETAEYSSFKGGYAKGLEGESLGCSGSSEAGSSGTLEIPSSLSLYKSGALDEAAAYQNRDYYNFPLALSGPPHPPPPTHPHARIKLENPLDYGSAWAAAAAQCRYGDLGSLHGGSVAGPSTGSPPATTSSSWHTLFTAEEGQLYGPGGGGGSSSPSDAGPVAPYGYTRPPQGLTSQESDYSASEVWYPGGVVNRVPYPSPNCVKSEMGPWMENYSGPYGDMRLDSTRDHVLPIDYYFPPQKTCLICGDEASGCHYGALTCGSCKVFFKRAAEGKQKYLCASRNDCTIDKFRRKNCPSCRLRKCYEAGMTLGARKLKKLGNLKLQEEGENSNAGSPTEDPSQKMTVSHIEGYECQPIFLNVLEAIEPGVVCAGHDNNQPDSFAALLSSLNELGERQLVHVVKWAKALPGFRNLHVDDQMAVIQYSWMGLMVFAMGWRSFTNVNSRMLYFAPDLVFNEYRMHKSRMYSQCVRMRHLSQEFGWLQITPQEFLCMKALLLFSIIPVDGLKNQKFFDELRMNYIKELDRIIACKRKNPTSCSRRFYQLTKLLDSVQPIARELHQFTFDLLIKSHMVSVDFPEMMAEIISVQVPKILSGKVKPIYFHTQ
Experimental: Mouse endogenous AR, human AR100Q, and high molecular weight hAR100Q from hAR100Q mice were quantified by capillary immunoassay. Tissue lysates were prepared as described above using antibodies to AR and resolved by capillary electrophoresis (ProteinSimple). High molecular weight AR was quantified as the area under the curve (AUC) from 300 to 600 kDa.
A parallel cohort of hAR100Q mice was maintained in order to evaluate AR degradation at the 11-week timepoint. hAR100Q mice in this tissue cohort were fed chow identical to the mice that underwent muscle strength and endurance tests and were euthanized at 11-weeks of age.

polyQ-AR = polyQ-AR degradation in SBMA patient hiPSC-derived myotubes, capillary immunoassay; format: cell-based, human; details: two donor hiPSC lines, 24 hours
Experimental: Lysates for hiPSC-derived myotubes were prepared in lysis buffer ([…], 50 mM sodium chloride, 1% NP-40, 1% SDS) supplemented with Halt Protease Inhibitor (78437 Thermo Fisher Scientific), Benzonase, and MgCl2 (1 mM final concentration). The lysates were cleared by centrifugation at 4° C. and supernatants were quantified using the BIO-RAD DC protein assay (5000112 BIO-RAD). The AR and protein levels were quantified by an automated capillary immunoassay experiment (ProteinSimple). The AR and Myosin Protein levels were quantified and normalized to total protein.
Control and SBMA hiPSCs were differentiated into myotubes as previously described (Caron, L. et al. 2016, STEM CELLS Transl. Med. 5, 1145-1161) using the skeletal muscle differentiation kit (Amsbio). hiPSCs were dissociated to single cells using Accutase and plated on Geltrex-coated 10 cm culture plates at a density of 200,000 cells per plate with SBMA hiPSCs in skeletal muscle induction media (SKM01, AMSBIO). Media changes were performed every second day until cells were confluent (˜7 days). The resulting myogenic precursor cells were then dissociated to single cells using Accutase and replated on Matrigel-coated 24-well tissue culture plate with 500 μL of cells at 35,000 cells per mL in skeletal myoblast media (SKM02, AMSBIO). Half media changes were performed every second day until myoblasts reached confluence (˜7 days). The media was then switched to myotube medium (SKM03, ASMBIO). Media changes every second day until myotube formation was confirmed by microscopy. Myotubes were treated on day 20 of differentiation (6 days' worth of SKM03 media) with compounds diluted in DMSO for a final DMSO concentration of 0.01% in SKM03 media. The cells were lysed 24 hours later in Pierce RIPA buffer (Cat. No. 89900, ThermoFisher) supplemented with 1× Halt protease inhibitor cocktail (Cat. No. 87786, ThermoFisher), 1 mM MgCl2, and 1 μL Benzonase Nuclease. AR protein was measured by capillary electrophoresis. […]

CC(C)N(CC1CCN(c2ncc(C(=O)N[C@H]3C(C)(C)[C@H](Oc4ccc(C#N)c(Cl)c4)C3(C)C)cn2)CC1)[C@H]1C[C@H](Oc2ccc3c(c2)C(=O)N(C2CCC(=O)NC2=O)C3=O)C1 (stereo partly shown) [Compound A, N-((1r,3r)-3-(3-chloro-4-cyanophenoxy)-2,2,4,4-tetramethylcyclobutyl)-2-(4-((((1r,3r)-3-((2-(2,6-dioxopiperidin-3-yl)-1,3-dioxoisoindolin-5-yl)oxy)cyclobutyl)(isopropyl)amino)methyl)piperidin-1-yl)pyrimidine-5-carboxamide]
reduction of endogenous mouse (WT) AR in LABC vs vehicle (endogenous mouse AR; LABC, 11 weeks of age, chow approx. 15 mg/kg): 77% | reduction of WT AR in quadriceps vs vehicle (endogenous mouse AR; quadriceps): 65% | DC50 (polyQ-AR): 0.6 to 0.8 nM | Dmax, polyQ-AR in SBMA hiPSC-myotubes (polyQ-AR): 83-96%
